Our source for the MIC values is publication PMC7838546, “A Thermostable, Modified Cathelicidin-Derived Peptide With Enhanced Membrane-Active Activity Against Salmonella enterica serovar Typhimurium” (Frontiers in Microbiology, 2021).

Like-named read-outs stand apart in the source and are kept apart here. Ends that are not written are not given here.

Experiment [1] concerns S. enterica serovar Typhimurium ATCC 13311. In kind it is cell-based, Salmonella enterica serovar Typhimurium. The method, then:
In order to induce bacterial resistance to P7, S. enterica serovar Typhimurium ATCC 13311 were cultured for 10 serial passages in MHB in the presence of P7 in a series of concentrations ranging from 0.98 to 250 μg/ml ([Veldhuizen et al., 2013]). In each passage, 50 μl of bacterial samples at sublethal concentrations (the highest peptide concentration displaying 80% growth compared with growth in MHB) were used to determine MIC values by a broth microdilution assay.

In experiment [2] the test system is S. enterica serovar 4,5,12:i:- H2-062 (foodborne isolate). Briefly: MIC/MBC, broth microdilution and colony count. The format is cell-based, Salmonella enterica serovar 4,5,12:i:-. The conditions noted are these: H2-062, pork intestine, resistant Amp, T, intermediate Cp, broth microdilution, 37°C, 24 h. The procedure:
(§1) Salmonella enterica serovar Typhimurium ATCC 13311, 24 drug-resistant foodborne and eleven drug-resistant human borne S. enterica serovar Typhimurium and 4,5,12:i:- isolates (Table 1) were used as test microorganisms. They were previously isolated for molecular characterization in 2014 and kindly provided by Dr. Soraya Chaturongakul (Mahidol University, Thailand) ([Huoy et al., 2014]). All bacteria were cultured in Tryptic Soy Broth (TSB) and incubated at 37°C for 18 h. Mueller Hinton Broth (MHB) was then used to wash and rinse the bacteria. The bacterial suspensions were then diluted to obtain concentrations of 10^7 CFU/ml for inoculations.
(§2) A modified version of the National Committee for Clinical Laboratory Standards (NCCLS) broth microdilution method ([Steinberg et al., 1997]) was used to determine the minimum inhibitory concentrations (MICs) of peptide and compared to that of nisin. Fifty microliters of two-fold serial dilutions of each peptide [0.98–250 μg/ml in 0.01% (v/v) acetic acid and 0.2% (w/v) bovine serum albumin (BSA, Sigma-Aldrich, MO, United States)], were incubated with 50 μl of bacterial suspensions (approximately 10^7 CFU/ml) at 37°C for 24 h in a shaking incubator. MICs were taken as the lowest concentration of peptide at which growth was inhibited as observed by visual inspection. Bacterial cultures without peptides and uncultured broth were used as positive and negative controls, respectively. Minimal bactericidal concentrations (MBCs) were determined using a colony count assay ([Clinical Laboratory Standards Institute [CLSI], 2015]). Fifty microliters of samples from each non-turbid well in the MIC determination experiment was plated on Mueller Hinton Agar (MHA) and colonies were observed after overnight incubation at 37°C. MBCs were designated as the least concentration showing no colony growth on the plate. All of experiments were performed in triplicate.

Experiment [3] relates to S. enterica serovar 4,5,12:i:- H1-025 (clinical isolate). Briefly: MIC/MBC, broth microdilution and colony count. In kind it is cell-based, Salmonella enterica serovar 4,5,12:i:-. The conditions noted are these: H1-025, urine, resistant Amp, Ctx, C, T, intermediate Cp, NA, SxT, broth microdilution, 37°C, 24 h. The method, then: as §1, §2
Experiment [4] has as its system S. enterica serovar 4,5,12:i:- H2-082 (foodborne isolate). Briefly: MIC/MBC, broth microdilution and colony count. The format is cell-based, Salmonella enterica serovar 4,5,12:i:-. The conditions noted are these: H2-082, pork intestine, resistant Amp, T, broth microdilution, 37°C, 24 h. The method, then:
as §1, §2

In experiment [5] the test system is S. enterica serovar 4,5,12:i:- H2-046 (foodborne isolate). Briefly: MIC/MBC, broth microdilution and colony count. The format is cell-based, Salmonella enterica serovar 4,5,12:i:-. The note with it: H2-046, pork heart, resistant Amp, T, intermediate Cp, broth microdilution, 37°C, 24 h. The procedure: as §1, §2
The test system of experiment [6] is S. enterica serovar 4,5,12:i:- H2-090 (foodborne isolate). Briefly: MIC/MBC, broth microdilution and colony count. The format is cell-based, Salmonella enterica serovar 4,5,12:i:-. The conditions noted are these: H2-090, pork intestine, resistant Amp, T, broth microdilution, 37°C, 24 h. The method, then: as §1, §2
For experiment [7], the system named is S. enterica serovar 4,5,12:i:- H2-067 (foodborne isolate). Kind of experiment: MIC/MBC, broth microdilution and colony count. The note with it: H2-067, pork kidney, resistant Amp, T, broth microdilution, 37°C, 24 h. The format is cell-based, Salmonella enterica serovar 4,5,12:i:-. The procedure: as §1, §2
Experiment [8] deals with S. enterica serovar 4,5,12:i:- H2-050 (foodborne isolate). Briefly: MIC/MBC, broth microdilution and colony count. The format is cell-based, Salmonella enterica serovar 4,5,12:i:-. The conditions noted are these: H2-050, pork heart, resistant Amp, broth microdilution, 37°C, 24 h. The method, then:
as §1, §2

Experiment [9] deals with S. enterica serovar 4,5,12:i:- H2-089 (foodborne isolate). Briefly: MIC/MBC, broth microdilution and colony count. The format is cell-based, Salmonella enterica serovar 4,5,12:i:-. The note with it: H2-089, pork intestine, resistant Amp, broth microdilution, 37°C, 24 h. The method, then: as §1, §2
The test system of experiment [10] is S. enterica serovar 4,5,12:i:- H2-071 (foodborne isolate). Kind of experiment: MIC/MBC, broth microdilution and colony count. The format is cell-based, Salmonella enterica serovar 4,5,12:i:-. The conditions noted are these: H2-071, pork heart, resistant Amp, Ctx, C, T, SxT, intermediate Cp, broth microdilution, 37°C, 24 h. The procedure: as §1, §2
Experiment [11] concerns S. enterica serovar 4,5,12:i:- H2-072 (foodborne isolate). Kind of experiment: MIC/MBC, broth microdilution and colony count. In kind it is cell-based, Salmonella enterica serovar 4,5,12:i:-. The note with it: H2-072, pork intestine, resistant Amp, Ctx, C, T, SxT, intermediate Cp, broth microdilution, 37°C, 24 h. The method, then: as §1, §2
For experiment [12], the system named is S. enterica serovar 4,5,12:i:- H1-027 (clinical isolate). Kind of experiment: MIC/MBC, broth microdilution and colony count. The note with it: H1-027, stool, resistant Amp, T, broth microdilution, 37°C, 24 h. The format is cell-based, Salmonella enterica serovar 4,5,12:i:-. The method, then:
as §1, §2

Experiment [13] relates to S. enterica serovar Typhimurium H1-015 (clinical isolate). Briefly: MIC/MBC, broth microdilution and colony count. The format is cell-based, Salmonella enterica serovar Typhimurium. The note with it: H1-015, boot swab, resistant Amp, intermediate Cp, broth microdilution, 37°C, 24 h. The procedure:
as §1, §2

In experiment [14] the test system is S. enterica serovar Typhimurium H1-001 (clinical isolate). Kind of experiment: MIC/MBC, broth microdilution and colony count. The format is cell-based, Salmonella enterica serovar Typhimurium. The note with it: H1-001, blood, resistant Amp, Ctx, C, Cp, NA, T, intermediate Amc, broth microdilution, 37°C, 24 h. The method, then:
as §1, §2

The test system of experiment [15] is S. enterica serovar Typhimurium H1-006 (clinical isolate). Briefly: MIC/MBC, broth microdilution and colony count. The format is cell-based, Salmonella enterica serovar Typhimurium. The note with it: H1-006, blood; resistant NA; intermediate S, Cp; broth microdilution, 37°C, 24 h. The method, then: as §1, §2

On to KIAKRIWKILRR-NH2 [P7], for which the MIC in [1] (serial passage 1), in experiment [1] (serial passage 2), in experiment [1] (serial passage 3), in experiment [1] (serial passage 4), in experiment [1] (serial passage 5) and in [1] (serial passage 6) was 3.91 µg/mL throughout. The MIC in experiment [1] (serial passage 7), in [1] (serial passage 8), in experiment [1] (serial passage 9), in experiment [1] (serial passage 10) and in experiment [1] (through all bacterial passages (10 serial passages)) was 3.91 µg/mL each time.
On to “Nisin: authorized food preservative peptide, binds lipid II and forms membrane pores (ITSISLCTPGCKTGALMGCNMKTATCHCSIHVSK; cysteine pairing not given here; also: lantibiotic nisin-A; UniProt P13068 24-57, looked up)”, for which the MIC in experiment [2], in experiment [3], in experiment [4], in experiment [5], in experiment [6] and in experiment [7] was more than 1000 µg/mL throughout. The MIC in experiment [8], in experiment [9], in experiment [10], in experiment [11], in experiment [12] and in [13] was more than 1000 µg/mL throughout. Besides, the MIC in experiment [14] and in experiment [15] was more than 1000 µg/mL throughout.
